Data published in the supplement of paper PMC11562712.

Assay: first-order primary biodegradation rate constant k (sorption-corrected, fDis-corrected) (d-1); higher = faster biodegradation
Outline: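 River water with sieved sediment (50 g wet solid L^–1) from German, Swiss, Spanish and Greek river segments was spiked with 129 compounds at 1 μg L^–1 each. It was shaken in the dark at river water temperature (20.5 ± 3.5 °C) for 10 days. Filtered water-phase subsamples were analysed by UHPLC-Orbitrap-MS/MS. First-order k came from log peak-area regression over three replicates, corrected for azide-sterilised sorption-control dissipation and divided by dissolved fraction; invalid fits excluded.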

[1] = river segment: Germany (DE) H_Contam, incubation temperature 24 °C
[2] = river segment: Germany (DE) T_Contam, incubation temperature 24 °C
[3] = river segment: Germany (DE) T_Pris, incubation temperature 24 °C
[4] = river segment: Greece (EL) A_Contam, incubation temperature 19 °C
[5] = river segment: Greece (EL) G_Contam, incubation temperature 19 °C
[6] = river segment: Greece (EL) G_Pris, incubation temperature 19 °C
[7] = river segment: Greece (EL) L_Contam, incubation temperature 19 °C
[8] = river segment: Spain (ES) B_Contam, incubation temperature 24 °C
[9] = river segment: Spain (ES) C_Contam, incubation temperature 24 °C
[10] = river segment: Spain (ES) F_Pris_Salt, incubation temperature 24 °C
[11] = river segment: Spain (ES) L_Contam, incubation temperature 24 °C
[12] = river segment: Switzerland (CH) C_Contam, incubation temperature 17 °C
[13] = river segment: Switzerland (CH) R_Contam, incubation temperature 17 °C
[14] = river segment: Switzerland (CH) U_Pris, incubation temperature 17 °C
[15] = river segment: Switzerland (CH) U_Contam, incubation temperature 17 °C

| first-order primary biodegradation rate constant k [1] | first-order primary biodegradation rate constant k [2] | first-order primary biodegradation rate constant k [3] | first-order primary biodegradation rate constant k [4] | first-order primary biodegradation rate constant k [5] | first-order primary biodegradation rate constant k [6] | first-order primary biodegradation rate constant k [7] | first-order primary biodegradation rate constant k [8] | first-order primary biodegradation rate constant k [9] | first-order primary biodegradation rate constant k [10] | first-order primary biodegradation rate constant k [11] | first-order primary biodegradation rate constant k [12] | first-order primary biodegradation rate constant k [13] | first-order primary biodegradation rate constant k [14] | first-order primary biodegradation rate constant k [15] | Compound |
| --- | --- | --- | --- | --- | --- | --- | --- | --- | --- | --- | --- | --- | --- | --- | --- |
| 0.295 | 0.469 | 0.123 | 0.408 | 0.184 | 0.438 | 0.566 | 1.03 | 0.169 | 0.0229 | 0.263 | 0.382 | 0.411 | 2.17 |  | CC(C)(Oc1ccc(CCNC(=O)c2ccc(Cl)cc2)cc1)C(=O)O [Bezafibrate] |
| 0.417 | 0.319 | 0.123 | 0.323 |  | 0.781 | 0.343 | 0.157 | 0.105 | 0.0258 | 0.299 | 0.06 | 0.149 | 0.358 | 0.294 | CCCCc1nc(Cl)c(CO)n1Cc1ccc(-c2ccccc2-c2nnn[nH]2)cc1 [Losartan] |
| 0.0281 | 0.0415 | 0.0208 |  |  |  |  |  |  |  |  |  |  |  |  | CN(C)C(=N)NC(=N)N [Metformin] |
| 0.129 | 0.416 |  | 0.0824 | 0.0668 | 0.237 | 0.123 | 1.13 |  |  | 1.27 | 0.0158 | 0.00496 | 0.0859 |  | COc1cc(NS(=O)(=O)c2ccc(N)cc2)nc(OC)n1 [Sulfadimethoxine] |
| 0.132 | 0.195 | 0.076 | 0.193 | 0.107 | 0.0804 | 0.337 | 0.147 | 0.232 | 0.0178 | 0.217 | 0.0406 | 0.0937 | 0.171 | 0.108 | CC(C)NCC(O)c1ccc(NS(C)(=O)=O)cc1 (centres undefined) [Sotalol] |
| 0.0512 |  | 0.204 | 0.786 | 1.15 |  |  | 0.121 | 0.261 |  | 0.41 | 0.0347 | 0.0781 | 0.0624 | 0.0824 | CCOc1ccccc1OCCN[C@H](C)Cc1ccc(OC)c(S(N)(=O)=O)c1 [Tamsulosin] |
|  |  |  |  | 7.74 |  |  |  |  |  |  |  |  |  |  | CCCCCCCCCCCCN [Dodecylamine] |
| 1.6 | 1.17 | 1.37 | 2.15 | 1.43 | 2.35 | 12 |  | 0.639 | 0.449 | 2.21 | 0.83 | 1.18 | 1.5 | 1.47 | Nc1nc(NC2CC2)c2ncn([C@H]3C=C[C@@H](CO)C3)c2n1 [Abacavir] |
|  |  |  | 0.0419 | 0.114 |  | 0.108 | 0.466 | 2.12 |  | 0.364 |  |  |  | 0.0177 | CCOC(=O)c1ccc(O)cc1 [Ethylparaben] |
|  | 0.512 | 0.0857 | 0.193 |  | 0.133 | 0.21 | 0.0276 | 0.0263 |  | 0.0585 | 0.0196 | 0.0447 | 0.0682 | 0.0845 | c1ccc([C@H]2CN3CCSC3=N2)cc1 [Levamisole] |
| 0.0889 | 0.143 |  | 0.0196 | 0.0964 |  | 0.063 |  |  |  | 1.1 |  |  |  |  | Cc1cc(NS(=O)(=O)c2ccc(N)cc2)no1 [Sulfamethoxazole] |
| 0.137 | 0.18 |  | 0.0748 |  |  | 0.0701 | 0.574 | 0.074 | 0.0381 | 0.158 |  |  |  |  | O=C(O)Cc1ccccc1Nc1c(Cl)cccc1Cl [Diclofenac] |

| Compound | first-order primary biodegradation rate constant k [1] | first-order primary biodegradation rate constant k [2] | first-order primary biodegradation rate constant k [3] | first-order primary biodegradation rate constant k [4] | first-order primary biodegradation rate constant k [5] | first-order primary biodegradation rate constant k [6] | first-order primary biodegradation rate constant k [7] | first-order primary biodegradation rate constant k [8] | first-order primary biodegradation rate constant k [9] | first-order primary biodegradation rate constant k [10] | first-order primary biodegradation rate constant k [11] | first-order primary biodegradation rate constant k [12] | first-order primary biodegradation rate constant k [13] | first-order primary biodegradation rate constant k [14] | first-order primary biodegradation rate constant k [15] |
| --- | --- | --- | --- | --- | --- | --- | --- | --- | --- | --- | --- | --- | --- | --- | --- |
| NCC1(CC(=O)O)CCCCC1 [Gabapentin] | 0.0147 | 0.183 |  | 0.0518 |  | 0.0145 |  | 0.811 | 0.119 | 0.119 | 0.235 |  | 0.109 | 0.15 | 0.0703 |
| Cc1ccc(NC(=O)N(C)C)cc1Cl [Chlortoluron] | 0.0585 | 0.156 | 0.00289 | 0.306 | 0.0396 | 0.423 | 0.139 | 0.0189 |  |  | 0.114 |  |  | 0.0569 | 0.0378 |
| CCNc1nc(NC(C)(C)C)nc(SC)n1 [Terbutryn] |  | 0.0714 |  | 0.0617 | 0.247 |  |  |  |  |  | 0.134 |  |  | 0.068 | 0.116 |
